# Key:
# Assay type in all cases: cell-based
# [1] = molecular target: T1, mouse P2X1 receptor (mP2X1) (Mus musculus, UniProt P51576); experiment: Two-electrode voltage clamp assay, recombinant mP2X1 receptor in Xenopus oocytes; conditions: 10 μM compound, 2 μM ATP, mean±SEM n≥3 (footnote c); for inhibition at 10 µM: read-out: mP2X1 % inhibitory effect at 10 μM
# T1 construct: expressed in transfected cells; host or cells: Xenopus oocytes (cRNA microinjection)
# T1 sequence (P51576 1-399): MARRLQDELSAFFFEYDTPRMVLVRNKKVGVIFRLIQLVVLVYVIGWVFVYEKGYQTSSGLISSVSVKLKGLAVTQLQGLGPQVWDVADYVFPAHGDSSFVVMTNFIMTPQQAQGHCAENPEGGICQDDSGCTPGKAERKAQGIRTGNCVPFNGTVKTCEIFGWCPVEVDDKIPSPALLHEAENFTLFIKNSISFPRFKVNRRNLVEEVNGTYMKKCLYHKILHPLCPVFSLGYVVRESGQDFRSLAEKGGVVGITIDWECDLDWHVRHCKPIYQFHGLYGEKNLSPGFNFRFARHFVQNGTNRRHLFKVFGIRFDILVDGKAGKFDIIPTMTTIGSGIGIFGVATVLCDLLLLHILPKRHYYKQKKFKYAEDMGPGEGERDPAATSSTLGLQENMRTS
# Procedure: (§1) 1-1. Two-Electrode Voltage Clamp Assay for Recombinant mP2X1 and hP2X3 Receptors
# (§2) Xenopus oocytes were isolated and incubated with 270 U/mg of collagenase at 23 to 24° C. for 1.5 hours. Defolliculated oocytes were kept in Barth's solution at 18° C. After 1 day, the defolliculated oocytes were each microinjected cytosolically with mP2X1 and human P2X3 receptor cRNA ([…], 1 μg/mL), incubated for 24 hours at 18° C. in Barth's solution. The cRNA-injected oocytes were kept for 12 days at 4° C. ATP-activated membrane currents (Vh=−70 mV) were recorded from the cRNA-injected oocytes using the two-electrode voltage clamp technique (Axoclamp 2B amplifier). Voltage recording ([…] tip resistance) and current-recording microelectrodes (5 MΩ tip resistance) were filled with 3.0 M KCl. Oocytes were placed in an electrophysiological chamber continuously superfused with Ringer's solution (5 mL/min, at 18° C.) containing 110 mM NaCl, 2.5 mM KCl, 5 mM HEPES and 1.8 mM BaCl2, with pH adjusted to 7.5. To induce an evoked current, 2 μM ATP was superfused for 60 to 120 seconds and then washed for 20 min. For data analysis, the ATP-evoked current was normalized at pH 7.5. The compounds were introduced to the fixed oocytes 20 minutes prior to ATP exposure in the electrophysiological chamber. IC50 values (the concentration of the compound required to inhibit the ATP response by 50%) were determined by Hill plots designed using the Chemical Formula: log(I/Imax−1), where I is the current evoked by ATP in the presence of an antagonist. Data are presented as mean±SEM (n≥3) from different batches of oocytes.
# (§3) In order to investigate the structure-activity relationship (SAR) of the compounds synthesized in the present invention, the antagonistic activity was evaluated by a two-electrode voltage clamp (TEVC) assay in Xenopus oocytes expressing the recombinant mP2X1 or hP2X3, respectively. The hP2X7R antagonistic activity was assessed using an ethidium ion accumulation assay in human HEK293 cells stably expressing the recombinant human P2X7R.
# [2] = molecular target: T2, human P2X3 receptor (hP2X3) (Homo sapiens, UniProt P56373); experiment: Two-electrode voltage clamp assay, recombinant hP2X3 receptor in Xenopus oocytes; conditions: for IC50: 2 μM ATP-evoked current, mean±SEM n≥3 (footnote d); for IC50 / inhibition at 1 µM: Xenopus oocytes; for inhibition at 1 µM: 1 μM compound, 2 μM ATP, mean±SEM n≥3 (footnote b), read-out: hP2X3 % inhibitory effect at 1 μM
# T2 construct: expressed in transfected cells; host or cells: Xenopus oocytes (cRNA microinjection)
# T2 sequence (P56373 1-397): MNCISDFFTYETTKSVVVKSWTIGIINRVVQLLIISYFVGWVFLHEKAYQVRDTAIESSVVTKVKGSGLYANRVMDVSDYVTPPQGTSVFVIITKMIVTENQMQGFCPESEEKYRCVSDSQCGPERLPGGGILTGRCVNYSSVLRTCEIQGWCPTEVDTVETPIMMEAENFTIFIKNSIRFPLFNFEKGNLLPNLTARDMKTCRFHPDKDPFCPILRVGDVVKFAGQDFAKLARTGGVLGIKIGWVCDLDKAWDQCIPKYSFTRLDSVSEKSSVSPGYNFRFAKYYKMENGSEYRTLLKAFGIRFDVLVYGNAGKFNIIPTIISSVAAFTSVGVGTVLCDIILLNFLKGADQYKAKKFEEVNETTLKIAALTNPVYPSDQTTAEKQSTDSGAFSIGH
# Procedure: as §1, §2, §3
# [3] = molecular target: T3, human P2X7 receptor (hP2X7) (Homo sapiens, UniProt Q99572); experiment: Ethidium bromide accumulation assay in hP2X7-expressing HEK293 cells; conditions: 10 μM compound with BzATP
# T3 construct: expressed in transfected cells
# T3 sequence (Q99572 1-595): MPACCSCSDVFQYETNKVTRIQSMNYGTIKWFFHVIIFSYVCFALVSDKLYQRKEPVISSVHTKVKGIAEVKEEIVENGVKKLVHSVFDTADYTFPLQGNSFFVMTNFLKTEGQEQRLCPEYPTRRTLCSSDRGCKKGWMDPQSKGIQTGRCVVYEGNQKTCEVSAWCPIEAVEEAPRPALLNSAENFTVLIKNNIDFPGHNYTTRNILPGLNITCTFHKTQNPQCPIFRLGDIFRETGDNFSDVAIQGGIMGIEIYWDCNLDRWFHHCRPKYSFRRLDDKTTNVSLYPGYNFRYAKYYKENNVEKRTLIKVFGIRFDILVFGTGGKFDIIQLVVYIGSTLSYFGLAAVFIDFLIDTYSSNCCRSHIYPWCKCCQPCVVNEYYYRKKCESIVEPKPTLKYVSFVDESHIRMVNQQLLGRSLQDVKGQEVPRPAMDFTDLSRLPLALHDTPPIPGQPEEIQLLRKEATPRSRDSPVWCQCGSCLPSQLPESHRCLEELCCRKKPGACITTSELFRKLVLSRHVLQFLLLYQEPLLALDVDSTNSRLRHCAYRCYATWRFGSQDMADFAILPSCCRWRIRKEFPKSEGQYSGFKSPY
# Procedure: 1-2. Ethidium Bromide Accumulation Assay in hP2X-Expressing HEK293 Cells
# HEK293 cells that are stably transfected with the human P2X7 receptor (P2X7R) were kept under a humidified atmosphere of 5% CO2 at 37° C. in DMEM supplemented with 10% (v/v) FBS, 2 mM L-glutamine and antibiotics (50 U/mL penicillin and 50 μg/ml streptomycin). BzATP-induced pore formation was measured using a fluorescence plate reader by measuring cellular absorption of ethidium in the hP2X7-expressing HEK293 cells. The hP2X7-expressing HEK293 cells were washed once with an appropriate assay buffer, and the buffer was also removed before subsequent analysis. All studies were performed at room temperature and the final assay volume was 100 μL. The cells were resuspended at 2.5×10^6 cells/mL in assay buffers consisting of 10 mM HEPES, 5 mM N-methyl-D-glucamine, 5.6 mM KCl, 10 mM D-glucose and 0.5 mM CaCl2 (pH 7.4) and supplemented with 280 mM sucrose or 140 mM NaCl.
# In order to determine the antagonistic activity of the 5-hydroxyl-pyridine derivatives of the present invention and the reference compound (AZD9056), these compounds were added to the cells at a concentration of 10 μM with BzATP without pre-incubation. The cells were incubated for 2 hours under a humidified atmosphere of 5% CO2 at 37° C., and the absorption of ethidium dye was observed by measuring fluorescence with a Bio-Tek instrument FL600 fluorescent plate reader (excitation wavelength of 530 nm and emission wavelength of 590 nm). The results are expressed as a percentage relative to the maximum cumulative amount of ethidium bromide when stimulated with BzATP alone.
# as §3
inhibition at 10 µM [1],IC50 [2],hP2X7 % inhibition of ethidium bromide accumulation [3],mP2X1 % inhibitory effect at 10 μM [1],selectivity for hP2X3R to mP2X1R ([2]; hP2X3R versus mP2X1R),inhibition at 1 µM [2],SMILES
37.3 ± 8.2%,466 nM,inactive,–,–,–,"COc1ccc(CCc2nc(C(C)C)c(O)c(C(=O)O)c2C(=O)O)cc1 [Compound 13f, 5-Hydroxy-6-isopropyl-2-(4-methoxyphenethyl)pyridine-3,4-dicarboxylic acid]"
–,751 ± 83 nM,Inactive,Inactive^c,–,–,"COc1ccc(CCc2nc(Cc3ccccc3)c(O)c(C(=O)O)c2C(=O)O)cc1 [Compound 13h, 6-Benzyl-5-hydroxy-2-(4-methoxyphenethyl)pyridine-3,4-dicarboxylic acid]"
41.9 ± 9.1%,95 nM,inactive,–,about 100 fold,–,"CCCCc1nc(CCc2ccc(OC)cc2)c(C(=O)O)c(C(=O)O)c1O [Compound 13e, 6-Butyl-5-hydroxy-2-(4-methoxyphenethyl)pyridine-3,4-dicarboxylic acid]"
27.5 ± 4.5%,301 nM,Inactive,–,–,–,"CCCc1nc(Cc2cccc(Oc3ccccc3)c2)c(C(=O)O)c(C(=O)O)c1O [Compound 27, 5-Hydroxy-2-(3-phenoxybenzyl)-6-propylpyridine-3,4-dicarboxylic acid]"
43.1 ± 12.9%,–,inactive,–,–,< 50%,"CCCc1nc(Cc2cccc(Oc3ccccc3)c2)c(C)c(CNS(C)(=O)=O)c1O [Compound 43, N-((3-Hydroxy-5-methyl-6-(3-phenoxybenzyl)-2-propylpyridin-4-yl)methyl)methanesulfonamide]"
–,742 ± 73 nM,inactive,Inactive^c,–,–,"COc1ccc(CCc2nc(CCc3ccccc3)c(O)c(C(=O)O)c2C(=O)O)cc1 [Compound 13i, 5-Hydroxy-2-(4-methoxyphenethyl)-6-phenethylpyridine-3,4-dicarboxylic acid]"
–,–,inactive,Inactive^c,–,16.3%,"COc1ccc(CCc2nc(C)c(O)c3c(=O)[nH][nH]c(=O)c23)cc1 [Compound 19, 8-Hydroxy-5-(4-methoxyphenethyl)-7-methyl-2,3-dihydropyrido[3,4-d]pyridazine-1,4-dione]"
–,–,inactive,inactive^c,–,< 50%,"CCCc1nc(Cc2cccc(Oc3ccccc3)c2)c(C)c(C#N)c1O [Compound 38, 3-Hydroxy-5-methyl-6-(3-phenoxybenzyl)-2-propylisonicotinonitrile]"
–,681 ± 98 nM,Inactive,Inactive^c,–,–,"COc1ccc(CCc2cc(C(=O)O)c(O)c(C)n2)cc1 [Compound 22a, 3-Hydroxy-6-(4-methoxyphenethyl)-2-methylisonicotinic acid]"
36.7 ± 2.8%,319 ± 81 nM,Inactive,–,–,–,"COc1ccc(CCc2nc(C(=O)O)c(O)c(C(=O)O)c2C(=O)O)cc1 [Compound 13j, 3-Hydroxy-6-(4-methoxyphenethyl)pyridine-2,4,5-tricarboxylic acid]"
25.3%,–,inactive,–,–,27.8%,"COc1ccc(CCc2nc(C)c(O)c3c2C(=O)OC3=O)cc1 [Compound 18, 7-Hydroxy-4-(4-methoxyphenethyl)-6-methylfuro[3,4-c]pyridine-1,3-dione]"

SMILES,inhibition at 10 µM [1],IC50 [2],hP2X7 % inhibition of ethidium bromide accumulation [3],mP2X1 % inhibitory effect at 10 μM [1],selectivity for hP2X3R to mP2X1R ([2]; hP2X3R versus mP2X1R),inhibition at 1 µM [2]
"COc1ccc(CCc2nc(C)c(O)c(-c3nnn[nH]3)c2C(=O)O)cc1 [Compound 17, 5-Hydroxy-2-(4-methoxyphenethyl)-6-methyl-4-(1H-tetrazol-5-yl)nicotinic acid]",–,–,inactive,Inactive^c,–,27.3 ± 1.8%
